Patent publication US20060188508A1, “Methods and compositions for modulating angiogenesis” (priority 2005, published 2006)
Ends that are not written are not given here.

Experiments:
[1] = system: Clone 18; assay: Drug sensitivity by MTT assay (IC50); type: cell-based, human; settings: for IC50: MTT assay, mean ± SD of three determinations; for Fold of resistance (Clone 18/M2182tTA): IC50 of clone 18 divided with IC50 of M2182tTA; for Killing of clone 18 cells compared with parental cells: non-taxane drugs, Table 1
[2] = system: M2182tTA; assay: Drug sensitivity by MTT assay (IC50); type: cell-based, human; settings: mean ± SD of three determinations
[3] = system: M2182tTA cells; assay: Preliminary taxol exposure of plated cells before selection of resistant clones; type: cell-based, human; settings: 5 days of exposure to 5 nM taxol; preliminary experiments
[4] = system: clone 18 cells; assay: Modulation of drug cytotoxicity by added TSP-1, mimetic peptides, antibody or MDR inhibitor (MTT viability); type: cell-based, human; settings: for Effect on taxol resistance / taxol cytotoxicity in clone 18: added to culture with various taxol concentrations, MTT
[5] = system: M2182tTA cells; assay: Modulation of drug cytotoxicity by added TSP-1, mimetic peptides, anti-CD47 antibody or pertussis toxin (MTT viability); type: cell-based, human
[6] = system: clone 18 cells; assay: TUNEL assay of taxol-induced apoptosis; type: cell-based, human; settings: taxol plus 7.5 μg/ml purified TSP-1, 3 days
[7] = molecular target: CD47 receptor (integrin-associated protein) (human, UniProt Q08722 19-323); assay: cell-based or functional assay
[8] = adriamycin, etoposide, vinblastine, vincristine, epothilone B

`CC[C@]1(O)C[C@H]2CN(CCc3c([nH]c4ccccc34)[C@@](C(=O)OC)(c3cc4c(cc3OC)N(C=O)[C@H]3[C@@](O)(C(=O)OC)[C@H](OC(C)=O)[C@]5(CC)C=CCN6CC[C@]43[C@@H]65)C2)C1` [Vincristine, vincristine] was tested, and the IC50 ([1]; Homo sapiens) was 12 ± 0.42 nM, the “Fold of resistance (Clone 18/M2182tTA)” value [1] was 1.09 and the “Killing of clone 18 cells compared with parental cells” value [1] was “No evidence of reduced killing”.

For `CC(=O)O[C@H]1C(=O)[C@@]2(C)[C@H]([C@H](OC(=O)c3ccccc3)[C@]3(O)C[C@H](OC(=O)[C@H](O)[C@@H](NC(=O)c4ccccc4)c4ccccc4)C(C)=C1C3(C)C)[C@]1(OC(C)=O)CO[C@@H]1C[C@@H]2O` [Taxol, Paclitaxel], the IC50 ([1]; Homo sapiens) was 17.5 ± 0.18 nM, the “Fold of resistance (Clone 18/M2182tTA)” value [1] was 2.45 and the “Fold of resistance (Clone 18/M2182tTA)” value ([1]; listed as taxol) was “approximately two and a half-fold”. For the same molecule, the IC50 ([2]; Homo sapiens) was 7.2 ± 0.11 nM and the “Surviving M2182tTA cells” value [3] was “no surviving M2182tTA cells”.

For GVITRIR (human) [ABT-510], the “Effect on taxol resistance / taxol cytotoxicity in clone 18” value [4] was “no effect”.

With KRFYVVMWKK [4N1K] the “Effect on taxol resistance / taxol cytotoxicity in clone 18” value [4] was “dose-dependent partial reversal”.

`CC[C@]1(O)C[C@@H]2CN(CCc3c([nH]c4ccccc34)[C@@](C(=O)OC)(c3cc4c(cc3OC)N(C)[C@H]3[C@@](O)(C(=O)OC)[C@H](OC(C)=O)[C@]5(CC)C=CCN6CC[C@]43[C@@H]65)C2)C1` [Vinblastine, vinblastine] was tested, and the IC50 ([1]; Homo sapiens) was 7 ± 0.21 nM, the “Fold of resistance (Clone 18/M2182tTA)” value [1] was 0.93 and the “Killing of clone 18 cells compared with parental cells” value [1] was “No evidence of reduced killing”. For the same molecule, the IC50 ([2]; Homo sapiens) was 7.5 ± 0.18 nM.

For `COc1cc([C@@H]2c3cc4c(cc3[C@@H](O[C@@H]3O[C@@H]5CO[C@@H](C)O[C@H]5[C@H](O)[C@H]3O)[C@H]3COC(=O)[C@H]23)OCO4)cc(OC)c1O` [Etoposide, etoposide], the IC50 ([1]; Homo sapiens) was 650 ± 60 nM, the “Fold of resistance (Clone 18/M2182tTA)” value [1] was 0.81 and the “Killing of clone 18 cells compared with parental cells” value [1] was “No evidence of reduced killing”. It also gave an IC50 ([2]; Homo sapiens) of 800 ± 30 nM.

With `C/C(=C\c1csc(C)n1)[C@@H]1C[C@@H]2O[C@]2(C)CCC[C@H](C)[C@H](O)[C@@H](C)C(=O)C(C)(C)[C@@H](O)CC(=O)O1` [Epothilone B] the “Fold of resistance (Clone 18/M2182tTA)” value [1] was 0.9, the IC50 [1] was 0.68 ± 0.21 nM and the “Killing of clone 18 cells compared with parental cells” value [1] was “No evidence of reduced killing”. It also gave an IC50 [2] of 0.75 ± 0.35 nM.

With “TSP-1: TSP-1 purified from human platelets, purchased from EMD Biosciences” the “Survival and apoptosis with agent alone” value ([4]; TSP-1 alone at the dosage added to clone 18 cultures) was “only limited ability to reduce survival and induce apoptosis”, the “Effect on taxol resistance / taxol cytotoxicity in clone 18” value [4] was “dose-dependent partial reversal” and the “Effect on killing of clone 18 cells by other chemotherapeutic agents” value [4, 8] was “no effects”. For the same molecule, the “Effect on taxol-mediated killing of naïve M2182tTA cells” value ([5]; added to culture with taxol, MTT) was “reduced survival”, the “Effect on sensitivity of M2182tTA cells to other chemotherapeutic drugs” value [5, 8] was “sensitization was not observed” and the Taxol-induced apoptosis [6] was “dramatically and synergistically increased”.

In the case of KRFYGGMWKK [4NGG], the “Effect on taxol resistance / taxol cytotoxicity in clone 18” value [4] is reported as “no effect”.

With `COc1cccc2c1C(=O)c1c(O)c3c(c(O)c1C2=O)C[C@@](O)(C(=O)CO)C[C@@H]3O[C@H]1C[C@H](N)[C@H](O)[C@H](C)O1` [Adriamycin, adriamycin] the IC50 ([1]; Homo sapiens) was 0.133 ± 0.0071 µg/mL, the “Fold of resistance (Clone 18/M2182tTA)” value [1] was 0.83 and the “Killing of clone 18 cells compared with parental cells” value [1] was “No evidence of reduced killing”. For the same molecule, the IC50 ([2]; Homo sapiens) was 0.15 ± 0.0099 µg/mL.

In the case of `CC(=O)O[C@@]12CO[C@@H]1C[C@H](O)[C@@]1(C)C(=O)[C@H](O)C3=C(C)[C@@H](OC(=O)[C@H](O)[C@@H](NC(=O)OC(C)(C)C)c4ccccc4)C[C@@](O)([C@@H](OC(=O)c4ccccc4)[C@H]21)C3(C)C` [Docetaxel], the IC50 ([1]; Homo sapiens) is reported as 6.93 ± 0.05 nM, the “Fold of resistance (Clone 18/M2182tTA)” value [1] is reported as 2.62 and the IC50 ([2]; Homo sapiens) is reported as 2.66 ± 0.11 nM.

B1: anti-CD47 monoclonal antibody, clone B6H12 (BD Pharmingen) (antibody)
chain: EVQLVESGGDLVKPGGSLKLSCAASGFTFSGYGMSWVRQTPDKRLEWVATITSGGTYTYYPDSVKGRFTISRDNAKNTLYLQIDSLKSEDTAIYFCARSLAGNAMDYWGQGTSVTVSSGGGGSGGGGSGGGGSDIVMTQSPATLSVTPGDRVSLSCRASQTISDYLHWYQQKSHESPRLLIKFASQSISGIPSRFSGSGSGSDFTLSINSVEPEDVGVYYCQNGHGFPRTFGGGTKLEIK
In the case of B1, the “viability of M2182tTA cells to taxol treatment (MTT assay, 10 ug/ml antibody)” value [7] is reported as 2.2 fold.
